Experimental data from article PMC9440883, “A new source of bacterial myrosinase isolated from endophytic Bacillus sp. NGB-B10, and its relevance in biological control activity” (World Journal of Microbiology & Biotechnology, 2022).

System: myrosinase (bglA, 6-phospho-β-glucosidase, GH1)
Test: initial rates, Lineweaver-Burk plot
Type: biochemical, Bacillus sp. NGB-B10
Conditions: 0.05 M phosphate buffer pH 7.0; 1-20 mM sinigrin; partially purified enzyme

C=CC/C(=N/OS(=O)(=O)O)S[C@@H]1O[C@H](CO)[C@@H](O)[C@H](O)[C@H]1O [sinigrin] was tested, and the Km was 2500 µM.
